{"source": "patent US20130041005A1", "about": "“PHARMACEUTICAL COMPOSITIONS COMPRISING NEUROPILIN INHIBITORS, AND THEIR USE FOR THE PREVENTION AND/OR TREATMENT OF ANGIOGENIC DISORDERS AND CANCERS” (TRAGEX PHARMA, priority 2011, published 2013)", "key": {"CEM": {"system": "CEM", "test": "WST-1 proliferation assay, CEM", "format": "cell-based", "conditions": "Homo sapiens, CCRF-CEM; Acute lymphoblastic leukemia CEM; read-out: Anti-proliferative activity IC50 (μM) ± SD", "procedure": "(§1) All the cancer cell lines were maintained in cultured in DMEM GlutaMAX™ (GIBCO Invitrogen, France, cat no 31966047) enhanced with 10% foetal bovine serum (GIBCO Invitrogen, France, cat no 10270-106) and 1% penicillin G/streptomycin (GIBCO Invitrogen, France, cat no 15140-122). Only Panc-10.5 cells were cultivated in RPMI 1640 medium (Gibco) supplemented with 2 mM L-glutamine, 1.5 g/L sodium bicarbonate, 4.5 g/L glucose, 10 mM HEPES, 1 mM sodium pyruvate, 10 Units/ml human insulin, […] (SVF): 15% (75 ml in 500 ml of medium).\n(§2) Cells were grown as subconfluent monolayer and cultured in 75 cm^2 flasks at 37° C., 5% CO2 in a humidified atmosphere, and medium was changed every two days. […]\n(§3) The cell proliferation WST-1 assay is a colorimetric assay for the quantification of cell proliferation and viability, based on the enzymatic cleavage of the tetrazolium salt WST-1 added to the culture medium, to a water soluble colored formazan dye, detected by absorbance at 450 nm, by mitochondrial succinate-tetrazolium reductase in viable cells. […]\n(§4) After an incubation period of 72 h, at day 4, were prepared the 19 ml medium with reagent WST-1 1 ml ([…]). […] The cells were incubated at 37° C. in a humidified atmosphere of 5% CO2 for 1 h 30 and the absorbance at 450-655 nm was measured by Microplate Manager 5.2 (Bio-Rad)."}, "Panc-10.5": {"system": "Panc-10.5", "test": "WST-1 proliferation assay, Panc-10.5", "format": "cell-based", "conditions": "Homo sapiens; for inhibition at 0.1 µM: PANC - 10.5, 0.1 μM; for inhibition at 0.5 µM: PANC - 10.5, 0.5 μM; for inhibition at 1 µM: PANC - 10.5, 1 μM; for IC50: Pancreas Panc-10.5, 72 h, read-out: Anti-proliferative activity IC50 (μM) ± SD", "from_the_text": "(§5) Several cancer cell lines were used: breast cancer cells (MDA-MB-231 (ATTCC® Number HTB-26™), MDA-MB-436 (ATTCC® Number HTB-130™), MDA-MB-438, BT-474 (ATTCC® Number HTB-20™)); cervical cancer cells (HeLa (ATTCC® Number CCL-2™)); colon cancer cells (HCT-116 (ATTCC® Number CCL-247™) and HT-29 (ATTCC® Number HTB-38™)); osteosarcoma cells (U2OS (ATTCC® Number HTB-96™)); pancreas cancer cells (MIA PaCa-2 (ATTCC® Number CRL-1420™) and Panc-10.5 (ATTCC® Number CRL-2547™)); prostate cancer cells (PC-3 (ATTCC® Number CRL-1435™) and LNCaP (ATTCC® Number CRL-1740™)); brain cancer cells (U87 glioblastoma (ATTCC® Number HTB-14™) and SH-SYSY neuroblastoma (ATTCC® Number CRL-2266™)).\nas §1\n(§6) Cells were grown as subconfluent monolayer and cultured in 75 cm^2 flasks at 37° C., 5% CO2 in a humidified atmosphere, and medium was changed every two days. Only cells from passages 2-6 were used for the experiments.\n(§7) After observation of cells under the microscope, old media were removed and the adherent cells washed gently twice with PBS (Phosphate Buffer Saline, —Ca^2+, —Mg^2+, Lonza cat no: 17-512F/12). All cells were detached with 3 ml of trypsin/EDTA (chelator of calcium and magnesium ions) (Lonza), incubated for 5 min at 37° C., and examined using a microscope to ensure that the cells were detached and floating. Then, 3 ml TNS (Trypsin Neutralizing Solution, Lonza, France, cat no CC-5002) or of culture medium were added to inactivate the trypsin, and the cell suspension was transferred in a falcon and centrifuged for 7 min at 1400 rpm. The supernatant was removed and the cell pellet resuspended in […] of culture medium. 50 μl of this solution were transferred in 20 μl of isotonic solution and the cells were counted by count cellular (Beckman Coulter). At day 0, 200 μl of cellular suspension (3.10^3 cells/well for the HUVEC cells, breast cancer cells (MDA-MB-231 1.10^4 cells/well, MDA-MB-436 1.10^4 cells/well, MDA-MB-438 2.10^4 cells/well, BT-474 2.5.10^4 cells/well); cervical cancer cells (HeLa 5.000 cells/well); colon cancer cells (HCT-116 5.10^3 cells/well, HCT-29 1.1.10^4 cells/well); osteosarcoma cells (U2OS 8.10^3 cells/well); pancreas cancer cells (MIA PaCa-2 5.10^3 cells/well, Panc-10.5 1.5.10^4 cells/well); prostate cancer cells (PC-3 4.10^3 cells/well, LNCaP 2.10^4 cells/well); brain cancer cells (U87 5.10^3 cells/well, SH-SYSY 8.10^4 cells/well)) were then plated on 96 well plates and incubated at 37° C. in a humidified atmosphere of 5% CO2 for 24 h.\n(§8) At day 1, the compounds 1 or 2 of the invention were added at increasing concentrations (0.1-10 μM) in the wells and plates were incubated at 37° C. in a humidified atmosphere of 5% CO2 for 72 h.\n(§9) The cell proliferation WST-1 assay is a colorimetric assay for the quantification of cell proliferation and viability, based on the enzymatic cleavage of the tetrazolium salt WST-1 added to the culture medium, to a water soluble colored formazan dye, detected by absorbance at 450 nm, by mitochondrial succinate-tetrazolium reductase in viable cells. An augmentation in enzyme activity will then lead to an increase in the amount of formazan dye formed, which directly correlates to the number of metabolically active cells in the culture.\n(§10) After an incubation period of 72 h, at day 4, were prepared the 19 ml medium with reagent WST-1 1 ml ([…]). The medium was removed from the 96 microplate and 200 μl of solution WST-1/medium were added for each well. […]"}, "GRANTA-519": {"system": "GRANTA-519", "test": "WST-1 proliferation assay, GRANTA-519", "format": "cell-based", "conditions": "Homo sapiens; Mantle cell lymphoma GRANTA-519; read-out: Anti-proliferative activity IC50 (μM) ± SD", "procedure": "as §1, §2, §3, §4"}, "U87 glioblastoma": {"system": "U87 glioblastoma", "test": "WST-1 proliferation assay, U87", "format": "cell-based", "conditions": "Homo sapiens"}, "MDA-MB-231": {"system": "MDA-MB-231", "test": "WST-1 proliferation assay, MDA-MB-231", "format": "cell-based, Human", "conditions": "for IC50: Homo sapiens, Breast MDA-MB-231, 72 h, read-out: Anti-proliferative activity IC50 (μM) ± SD; for effect on anti-proliferative effect of 5-FU: MDA-MB-231, combination with 5-FU, 72 hours (FIG. 7); for cytotoxicity for cancer cells in vitro: MDAMB-231 cell survival, FIGS. 1A-C", "procedure": "as §6\nAll cells were detached with 3 ml of trypsin/EDTA (chelator of calcium and magnesium ions) (Lonza), incubated for 5 min at 37° C., and examined using a microscope to ensure that the cells were detached and floating. […] The supernatant was removed and the cell pellet resuspended in […] of culture medium. 50 μl of this solution were transferred in 20 μl of isotonic solution and the cells were counted by count cellular (Beckman Coulter).\nas §9\nAfter an incubation period of 72 h, at day 4, were prepared the […] medium with reagent WST-1 […] ([…]). The medium was removed from the 96 microplate and 200 μl of solution WST-1/medium were added for each well. The cells were incubated at 37° C. in a humidified atmosphere of 5% CO2 for 1 h 30 and the absorbance at 450-655 nm was measured by Microplate Manager 5.2 (Bio-Rad)."}, "NCI-H460": {"system": "NCI-H460", "test": "WST-1 proliferation assay, NCI-H460", "format": "cell-based", "conditions": "Homo sapiens; Lung NCI-H460; read-out: Anti-proliferative activity IC50 (μM) ± SD", "procedure": "as §1, §2, §3, §4"}, "MDA-MB-438": {"system": "MDA-MB-438", "test": "WST-1 proliferation assay, MDA-MB-438", "format": "cell-based", "conditions": "Homo sapiens; for IC50: Breast MDA-MB-438, 72 h, read-out: Anti-proliferative activity IC50 (μM) ± SD; for inhibition at 0.1 µM: MDA-MB-438, 0.1 μM; for inhibition at 0.5 µM: MDA-MB-438, 0.5 μM; for inhibition at 1 µM: MDA-MB-438, 1 μM", "from_the_text": "as §5, §1, §6, §7, §8, §9, §10"}}}
{"smiles": "Cc1ccc(-c2nc3ccccc3[nH]2)cc1NC(=S)NC(=O)c1ccc2c(c1)OCCO2", "note": "[Compound 1, N-[5-(1H-benzimidazol-2-yl)-2-methylphenyl]-N′-(2,3-dihydro-1,4-benzodioxin-6-ylcarbonyl)thiourea]", "values": [{"measurement": "IC50", "setting": "CEM", "result": "0.5 ± 0.01", "unit": "µM"}, {"measurement": "inhibition at 0.1 µM", "setting": "Panc-10.5", "result": 21, "unit": "%"}, {"measurement": "inhibition at 0.5 µM", "setting": "Panc-10.5", "result": 44, "unit": "%"}, {"measurement": "inhibition at 1 µM", "setting": "Panc-10.5", "result": 56, "unit": "%"}, {"measurement": "IC50", "setting": "Panc-10.5", "result": 1, "unit": "µM"}, {"measurement": "IC50", "setting": "GRANTA-519", "result": 1, "unit": "µM"}, {"measurement": "inhibition at 0.05 µM", "setting": "U87 glioblastoma", "result": 0, "unit": "%"}, {"measurement": "IC50", "setting": "MDA-MB-231", "result": "0.6 ± 0.03", "unit": "µM"}, {"measurement": "effect on anti-proliferative effect of 5-FU", "setting": "MDA-MB-231", "result": "increase the anti-proliferative effect of 5-FU"}, {"measurement": "cytotoxicity for cancer cells in vitro", "setting": "MDA-MB-231", "result": "cytotoxic"}, {"measurement": "IC50", "setting": "NCI-H460", "result": "0.5 ± 0.09", "unit": "µM"}, {"measurement": "IC50", "setting": "MDA-MB-438", "result": 1, "unit": "µM"}, {"measurement": "inhibition at 0.1 µM", "setting": "MDA-MB-438", "result": 4, "unit": "%"}, {"measurement": "inhibition at 0.5 µM", "setting": "MDA-MB-438", "result": 40, "unit": "%"}, {"measurement": "inhibition at 1 µM", "setting": "MDA-MB-438", "result": 55, "unit": "%"}]}
{"smiles": "O=C(NC(=S)Nc1cccc(-c2nc3ccccc3[nH]2)c1)c1ccc2c(c1)OCCO2", "note": "[Compound 2, N-[3-(1H-benzimidazol-2-yl)phenyl]-N′-(2,3-dihydro-1,4-benzodioxin-6-ylcarbonyl)thiourea]", "values": [{"measurement": "IC50", "setting": "CEM", "result": "0.3 ± 0.04", "unit": "µM"}, {"measurement": "inhibition at 0.1 µM", "setting": "Panc-10.5", "result": 51, "unit": "%"}, {"measurement": "inhibition at 0.5 µM", "setting": "Panc-10.5", "result": 62, "unit": "%"}, {"measurement": "inhibition at 1 µM", "setting": "Panc-10.5", "result": 65, "unit": "%"}, {"measurement": "IC50", "setting": "Panc-10.5", "result": "0.1 ± 0.09", "unit": "µM"}, {"measurement": "IC50", "setting": "GRANTA-519", "result": "0.5 ± 0.02", "unit": "µM"}, {"measurement": "inhibition at 0.05 µM", "setting": "U87 glioblastoma", "result": 19, "unit": "%"}, {"measurement": "IC50", "setting": "MDA-MB-231", "result": "0.4 ± 0.02", "unit": "µM"}, {"measurement": "effect on anti-proliferative effect of 5-FU", "setting": "MDA-MB-231", "result": "increase the anti-proliferative effect of 5-FU"}, {"measurement": "cytotoxicity for cancer cells in vitro", "setting": "MDA-MB-231", "result": "cytotoxic"}, {"measurement": "IC50", "setting": "NCI-H460", "result": "0.3 ± 0.04", "unit": "µM"}, {"measurement": "IC50", "setting": "MDA-MB-438", "result": "0.5 ± 0.03", "unit": "µM"}, {"measurement": "inhibition at 0.1 µM", "setting": "MDA-MB-438", "result": 34, "unit": "%"}, {"measurement": "inhibition at 0.5 µM", "setting": "MDA-MB-438", "result": 51, "unit": "%"}, {"measurement": "inhibition at 1 µM", "setting": "MDA-MB-438", "result": 58, "unit": "%"}]}
